The values below come from patent US20120190635A1, “SELECTIVE OXIDATION OF C-H BONDS OF MODIFIED SUBSTRATES BY P450 MONOOXYGENASE” (THE REGENTS OF THE UNIVERSITY OF MICHIGAN, priority 2009, published 2012).

Experiment [1] addresses T1, PikCD50N-RhFRED (Streptomyces venezuelae, UniProt O87605, D50N). The experiment is classed as biochemical. Particulars: for Number of products: Table 1.
The test system of experiment [2] is Staphylococcus aureus ATCC6538P. The experiment can be described thus: antibacterial MIC, microtiter dilution. Particulars: Staphylococcus aureus, ATCC6538P, read-out: Minimal inhibitory concentration.
The subject of experiment [3] is Kocuria rhizophila ATCC9341. The experiment can be described thus: antibacterial MIC, microtiter dilution. Particulars: Kocuria rhizophila, ATCC9341, read-out: Minimal inhibitory concentration.
For experiment [4], the system named is S. aureus NorA. The experiment can be described thus: antibacterial MIC, microtiter dilution. Particulars: Staphylococcus aureus, read-out: Minimal inhibitory concentration.
In experiment [5] the test system is Escherichia. coli TolC. The experiment can be described thus: antibacterial MIC, microtiter dilution. Particulars: Escherichia coli, read-out: Minimal inhibitory concentration, E. coli W3110 TolC disruption mutant; Mueller Hinten.
In experiment [6] the test system is Multidrug resistant S. aureus (MRSA). The experiment can be described thus: antibacterial MIC, microtiter dilution. Particulars: Staphylococcus aureus, MRSA, read-out: Minimal inhibitory concentration.
The test system of experiment [7] is Deinococcus radiodurans. The experiment can be described thus: antibacterial MIC, microtiter dilution. Particulars: 60 h.
In experiment [8] the test system is Acinetobacter baumannii. The experiment can be described thus: antibacterial MIC, microtiter dilution. Particulars: read-out: Minimal inhibitory concentration.
Experiment [9] deals with Bacillus subtillis DHS5333. The experiment can be described thus: antibacterial MIC, microtiter dilution. Particulars: Bacillus, DHS5333, read-out: Minimal inhibitory concentration.
Experiment [10] addresses T1, PikCD50N-RhFRED. The experiment can be described thus: substrate binding assay, PikCD50N-RhFRED. As for the experimental part: The unnatural cyclic carbolide substrate desosaminyl cyclododecane was synthesized to mimic the structure of the natural substrate YC-17 using a recently developed synthetic strategy (Anzai Y, et al. Functional analysis of MycG and MycCI, cytochrome P450 enzymes involved in biosyntheis of mycinamicin macrolide antibiotics. Chem. Biol. 2008 15:950-959), which was subsequently employed as a general approach to derivatize diverse alcohols with desosamine (FIG. 6). The standard assay contains 5 μM PikCD50N—RhFRED, 0.5 mM substrate, 2.5 mM NADPH, 0.25 Unit of glucose-6-phosphate dehydrogenase, and 5 mM glucose-6-phosphate for NADPH regeneration in 100 μl of reaction buffer (50 mM NaH2PO4, pH 7.3, 1 mM EDTA, 0.2 mM dithioerythritol, and 10% glycerol). The reaction was carried out at 30° C. for 3 h and terminated by extraction using 3×200 μl of CHCl3. The resulting organic extract was dried by N2 and redissolved in 120 μl of methanol. The subsequent LC-MS analysis was performed on a ThermoFinnigan LTQ linear ion-trap instrument (Department of Pharmacology, University of Michigan) equipped with electrospray source and Surveyor HPLC system by using an XBridge™ C18 3.5 μm 150 mm reverse-phase HPLC column under following conditions: mobile phase (A=deionized water+0.1% formic acid, B=acetonitrile+0.1% formic acid), 20% B for 3 min, 20-100% B over 25 min, 100% B for 5 min, 100-20% B over 1 min, 20% B for 15 min; flow rate, 0.21 ml/min The substrate binding assays were performed following the previous report (Li et al., supra).
The decreased binding affinity of desosaminyl cyclododecane could result from […], an entropic penalty upon binding due to high conformational freedom of the saturated ring system, […]) lack of hydrophobic interactions between the functional groups on the macrolactone ring of […] and PikC active site residues, and/or […]) loss of some specific interactions with desosamine as observed in the co-crystal structure with PikC. […] Due to enhanced substrate conversion and ease of use in the absence of expensive exogenous redox partners, PikCD50N—RhFRED was employed to hydroxylate carbolide desosaminyl cyclododecane and all other substrates.

Experiment [11] has as its system selected microbial targets. The experiment can be described thus: antibacterial activity, summary in words. The experiment is classed as cell-based. As for the experimental part:
All measurements were performed in duplicate.
The bioactivity of 8 was compared with its synthetic hydroxylated products. Unexpectedly, upon installation of a hydroxyl group at either the C7/C8 or C6/C9 positions (the four authentic standards, each of which contains a pair of diastereomers), the products lost activity. […] Further analysis of these carbolides, and direct investigation of their presumed binding to ribosomal targets will provide important insights into the impact of PikC-mediated regioselective hydroxylation for development of new small molecules for treatment of microbial pathogens and other human diseases.

Setting [12] is: read-out: Minimal inhibitory concentration, Deinococcus radiodurans, Special media, 30° C.

pKd: −log10 of the molar value. Values after ≈ are worked out from the molar mass of the structure shown. Like-named read-outs stand apart in the source and are kept apart here. Bounds are passed on as bounds.

T1 sequence (O87605 other isoform, or with tags, fused parts or gaps D50N): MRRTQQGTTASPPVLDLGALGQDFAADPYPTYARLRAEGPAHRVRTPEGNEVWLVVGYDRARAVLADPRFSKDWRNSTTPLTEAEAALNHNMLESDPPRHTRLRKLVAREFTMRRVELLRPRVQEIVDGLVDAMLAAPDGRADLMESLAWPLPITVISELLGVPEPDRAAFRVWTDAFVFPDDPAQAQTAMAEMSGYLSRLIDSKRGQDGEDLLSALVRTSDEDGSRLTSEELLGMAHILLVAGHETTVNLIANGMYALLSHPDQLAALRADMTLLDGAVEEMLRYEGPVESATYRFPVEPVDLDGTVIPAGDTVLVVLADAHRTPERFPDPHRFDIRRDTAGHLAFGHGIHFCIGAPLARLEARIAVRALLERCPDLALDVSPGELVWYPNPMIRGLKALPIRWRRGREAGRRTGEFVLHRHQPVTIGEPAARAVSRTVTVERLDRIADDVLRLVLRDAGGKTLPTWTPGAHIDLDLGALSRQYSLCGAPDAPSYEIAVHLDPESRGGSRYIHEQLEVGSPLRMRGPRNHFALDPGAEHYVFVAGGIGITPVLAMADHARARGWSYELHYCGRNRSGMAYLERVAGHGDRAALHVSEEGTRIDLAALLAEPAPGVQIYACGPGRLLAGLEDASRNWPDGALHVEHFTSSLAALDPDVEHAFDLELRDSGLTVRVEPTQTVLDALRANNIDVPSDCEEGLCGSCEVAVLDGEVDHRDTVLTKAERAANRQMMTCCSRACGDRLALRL

With `CC1CC(N(C)C)C(O)C(OC2CCCCCCCCCCCC2)O1` (stereo not shown) [Compound 8, 2-(Cyclotridecyloxy)-4-(dimethylamino)-6-methyltetrahydro-2H-pyran-3-ol], the “share of monohydroxylated products oxidized at sites remote from desosamine” value in experiment [1] (C7 and C6/C8 for the 12-membered ring, C7/C8 or C6/C9 for the 13-membered ring) is listed as 94%. The Number of products in experiment [1] (PikCD50N-RhFRED) was 6. Besides, the MIC in experiment [2] was determined as 400 µM (≈ 142 µg/mL); in experiment [3] it was 50 µM (≈ 17.8 µg/mL); in experiment [4], 200 µM (≈ 71.1 µg/mL); in experiment [5], 50 µM (≈ 17.8 µg/mL); in [6] it was 200 µM (≈ 71.1 µg/mL); in experiment [7] (setting [12]), 100 µM (≈ 35.6 µg/mL). Further, the MIC in experiment [8] was above 400 µM; in [9], 200 µM (≈ 71.1 µg/mL). In addition, in [10], the pKd (in general, the negative decadic logarithm of the Kd, by convention in mol/L) was 3.66. Moreover, the “antibacterial activity in words” value in [11] is “displayed some inhibitory activities”.
`CCCCCCC#CCCOC1OC(C)CC(N(C)C)C1O` (stereo not shown) [Compound 17, 2-(Dec-3-ynyloxy)-4-(dimethylamino)-6-methyltetrahydro-2H-pyran-3-ol]: in [1] (PikCD50N-RhFRED), the Number of products amounted to 5. Moreover, the MIC in [2], in experiment [3], in experiment [4], in experiment [5], in experiment [6] and in experiment [7] (setting [12]) was above 400 µM each time. Further, the MIC in experiment [8] and in experiment [9] was above 400 µM in each case. The negative logarithm of the Kd (pKd) in experiment [10] is 2.54.
In the case of `CC1CC(N(C)C)C(O)C(OC2CCCCCCCCCCCCC2)O1` (stereo not shown) [Compound 10, 2-(cyclotetradecyloxy)-4-(dimethylamino)-6-methyltetrahydro-2H-pyran-3-ol], in experiment [1] (PikCD50N-RhFRED), the Number of products was 6. The MIC in experiment [2] is above 400 µM; in experiment [3] it was 50 µM (≈ 18.5 µg/mL); in experiment [4], 400 µM (≈ 148 µg/mL); in experiment [5], 50 µM (≈ 18.5 µg/mL); in experiment [6], 400 µM (≈ 148 µg/mL); in experiment [7] (setting [12]) it was 50 µM (≈ 18.5 µg/mL). The MIC in experiment [8] was above 400 µM; in experiment [9], 200 µM (≈ 73.9 µg/mL). The compound further gave a pKd in experiment [10] of 3.54. In addition, the “antibacterial activity in words” value in [11] is “displayed some inhibitory activities”.
As to `CC1CC(N(C)C)C(O)C(Oc2ccc3ccc4cccc5ccc2c3c45)O1` (stereo not shown) [Compound 19, 4-(Dimethylamino)-6-methyl-2-(pyren-1-yloxy)tetrahydro-2H-pyran-3-ol], the “number of oxidized products” value in experiment [1] (PikCD50N-RhFRED) was “single”. The same compound came in with a Number of products in experiment [1] (PikCD50N-RhFRED) of 1. Further, the MIC in experiment [2], in [3], in [4], in experiment [5], in [6] and in [7] (read-out: Minimal inhibitory concentration) was 25 µM (≈ 9.39 µg/mL) throughout. For the same compound, the figures for the MIC in experiment [8] and in experiment [9] were 100 µM (≈ 37.5 µg/mL) and 6.2 µM (≈ 2.33 µg/mL), respectively. In experiment [10], this compound showed a negative logarithm of the Kd (pKd) below 2.30.
Compound `CC1CC(N(C)C)C(O)C(OC2CCCCCCCCCCCCCC2)O1` (stereo not shown) [Compound 12, 2-(cyclopentadecyloxy)-4-(dimethylamino)-6-methyltetrahydro-2H-pyran-3-ol] had a Number of products in experiment [1] (PikCD50N-RhFRED) of 9. Moreover, the MIC in experiment [2] turned out to be 200 µM (≈ 76.7 µg/mL); in [3], 50 µM (≈ 19.2 µg/mL); in experiment [4] it was 100 µM (≈ 38.4 µg/mL); in experiment [5], 50 µM (≈ 19.2 µg/mL); in experiment [6], 100 µM (≈ 38.4 µg/mL); in experiment [7] (setting [12]), 50 µM (≈ 19.2 µg/mL). Besides, the MIC was above 400 µM in experiment [8] and 100 µM (≈ 38.4 µg/mL) in experiment [9]. In addition, the pKd in experiment [10] is 3.61. In addition, the “antibacterial activity in words” value in experiment [11] was “displayed some inhibitory activities”.
